Measured values: patent US4473554A, “Bestatin-related compounds as immunopotentiator” (Zaidan Hojin Biseibutsu Kagaku Kenkyu Kai, priority 1982, dated 1984)
Converted amounts (≈) assume the structure as drawn.

What was measured:
[1] = test system: D.T.H. response in mice immunized with sheep red blood cell (SRBC); assay: Delayed Type Hypersensitivity (D.T.H.) footpad test in mice immunized with SRBC, Example 2; assay type: in vivo, mouse; conditions: CDF1 mice, control = 100
Method: This Example describes the tests for evaluation of the immunopotentiating activity of the new compound of this invention.
A suspension of 10^8 sheep red blood cells in 0.05 ml of physiological saline was subcutaneously injected at the time of immunization into the right hind footpad of each CDF1 -mouse under test (female, 8 weeks-aged, 5 mice in each group) to establish D.T.H. Simultaneously to the immunization, […] prepared by dissolving the test compound in physiological saline and then filtering the solution by a micropore filter (pore diameter: 0.22 micrometers). Four days later, 10^8 SRBC were subcutaneously injected into the left […] footpad of each test mouse for elicitation of the D.T.H. response. 24 Hours after the elicitating injection, the increased thickness of the left hind footpad was measured with calipers to estimate the degree of swelling in the footpad. The swelling degree is expressed in term of the values calculated by the equation: [formula] The degree of swelling serves to evaluate the degree of cell-mediated immunity involved. For comparison, a suspension of bestatin dispersed in water was tested in the same way as above.

[2] = solubility in water
[3] = target: T1, aminopeptidase B (Rattus norvegicus, UniProt O09175); assay: aminopeptidase B-inhibiting activity (modified Hopsu method, arginine β-naphthylamide substrate); assay type: biochemical; conditions: 37° C., pH 7.0, 30 minutes
T1 sequence (O09175 1-650): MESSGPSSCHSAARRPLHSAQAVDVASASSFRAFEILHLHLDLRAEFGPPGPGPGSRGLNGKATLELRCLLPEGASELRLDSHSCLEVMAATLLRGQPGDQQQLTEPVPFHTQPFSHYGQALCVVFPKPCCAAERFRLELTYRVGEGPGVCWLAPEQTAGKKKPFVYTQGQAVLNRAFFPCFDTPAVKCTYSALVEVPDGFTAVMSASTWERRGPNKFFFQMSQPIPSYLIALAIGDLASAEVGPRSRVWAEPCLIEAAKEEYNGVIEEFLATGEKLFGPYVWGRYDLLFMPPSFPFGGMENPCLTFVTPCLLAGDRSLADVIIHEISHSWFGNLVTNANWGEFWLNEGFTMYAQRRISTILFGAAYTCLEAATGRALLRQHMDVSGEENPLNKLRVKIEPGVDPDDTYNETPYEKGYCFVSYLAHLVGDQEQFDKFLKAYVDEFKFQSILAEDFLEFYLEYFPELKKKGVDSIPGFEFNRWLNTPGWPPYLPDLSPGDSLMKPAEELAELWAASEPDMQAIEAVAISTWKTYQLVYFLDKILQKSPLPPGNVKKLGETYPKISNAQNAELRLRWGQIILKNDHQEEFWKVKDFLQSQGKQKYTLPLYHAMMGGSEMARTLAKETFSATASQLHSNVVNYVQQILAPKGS
Method: The aminopeptidase B-inhibiting activity was determined according to a modification of the method of V. K. Hopsu et al. described in the "Archives of Biochemistry and Biophysics" Vol. 114, 557 (1966). Thus, a mixture of 0.8 ml of 0.1 mM of (S)-arginine β-naphthylamide and 1.0 ml of 0.1M Tris-hydrochloride buffer (pH 7.0) was admixed with 0.7 ml of 0.1M Tris-hydrochloride buffer (pH 7.0) containing the test compound and then heated at 37° C. for 3 minutes. […] After the reaction at 37° C. for 30 minutes, the reaction solution was admixed with 0.6 ml of 0.1M acetate buffer (pH 4.2) containing 1.0 mg/ml of diazonium salt of o-aminoazotoluene (Garnet GBC) and 1.0% of a surfactant "Tween" 20 (a registered trademark) to stop the enzymatic reaction and then allowed to stand at ambient temperature for 15 minutes. After this, absorbance (a) at 525 nm of the reaction solution was measured by spectrophotometer. For the control, the above procedure was repeated without the test compound and the adsorbence (b) was measured. Percentages for inhibition to aminopeptidase B were calculated according to the equation: [formula] Inhibition percentages at various concentrations of the test compound were measured, and from the values of inhibition percentages measured 50% Inhibition Concentration (IC50) was evaluated.

[4] = test system: D.T.H. response in tumor-bearing (Sarcoma 180) mice immunized with SRBC; assay: D.T.H. footpad test in Sarcoma 180 tumor-bearing mice immunized with SRBC, Example 23; assay type: in vivo, mouse; conditions: Sarcoma 180-bearing CDF1 mice
Method: This Example describes the tests for evaluation of the immunopotentiating activity of the new compound of this invention. Thus, the effect of the new compound of cell-mediated immunity was tested according to a known technique of Delayed Type Hypersensitivity (D.T.H.) (see P. H. Lagrange et al. "J. Exp. Med." Vol. 139, 1529-1539 (1974)) using tumor-bearing mice which had been immunized with sheep red blood cell (SRBC) as antigen as inoculated into the footpad of the mice.
Thus, a suspension of 10^8 sheep red blood cells in 0.05 ml of physiological saline was subcutaneously injected at the time of immunization into the right hind footpad of each CDF1 -mouse under test (female, 8 weeks-aged, 6 mice in each group) to which 10^6 cells of the tumor cell, Sarcoma 180 had been inoculated intraperitoneally.
On the same day as the day when the immunization with SRBC was effected, as well as on the subsequent, consecutive four days, the mouse under test were then treated by intraperitoneal administration of 0.05 mg/kg, 0.5 mg/kg or 5 mg/kg per day of the test compound as the solution which was prepared by dissolving the test compound in physiological saline and then filtering the solution by a micropore filter (pore diameter: 0.22 micrometers). Two days after the immunization with SRBC, 10^8 SRBC were subcutaneously injected into the left hind footpad of each test mouse for elicitation of the D.T.H. responde. 24 Hours after the elicitating injection, the increased thickness of the left hind footpad was measured with calipers to estimate the degree of swelling in the footpad. The swelling degree is expressed in term of the values calculated by the equation: [formula] The degree of swelling serves to evaluate the degree of cell-mediated immunity involved. For comparison, a suspension of bestatin dispersed in water was tested in the same way as above.

[5] = test system: ICR-strain mice; assay: acute toxicity, intraperitoneal, ICR-strain mice; assay type: in vivo, mouse; conditions: dosage of 100 mg/kg
Description: In order to estimate the acute toxicity of the compound of the formula (VIII) or (IIId), some of the test compound was intraperitoneally given to ICR-strain mice (in groups each consisting of 6 mice, male, 5 weeks-aged, average body weight 20 g.), when all the tested mice tolerated intraperitoneal administration of (2S,3R)-APHA; (2S)-2-N-[(2'S,3'R)-3'-amino-2'-hydroxy-4'-phenyl-butanoyl]amino-4-methyl- pentanol; (2S)-2-N-[(2'S,3'R)-3'-amino-2'-hydroxy-4'-phenylbutanoyl-(S)-leucyl]amino-4-methyl-pentanol; (2S,3R)-3-amino-2-hydroxy-4-phenylbutanoyl-(S)-leucyl-(S)-leucine; (2S,3R)-3-amino-2-hydroxy-4-phenyl-butanoyl-(S)-leucyl-(S)-arginine; (2S,3R)-3-amino-2-hydroxy-4-phenylbutanoyl-(S)-leucyl-(S)-asparagine; (2R,3R)-3-amino-2-hydroxy-4-phenylbutanoyl-(S)-leucyl-(R)-asparagine; and (2S,3R)-3-amino-2-hydroxy-4-phenylbutanoyl-(S)-leucyl-(R)-arginine at a dosage of 100 mg/kg.

[6] = test system: D.T.H. response in mice immunized with SRBC as antigen; assay: D.T.H. footpad test in mice immunized with SRBC, Examples 3-6 (dosages per mouse); assay type: in vivo; conditions: for Degree of swelling: control = 100
Method: The effect of (2S,3R)-AHPA on cell-mediated immunity was tested in the same way in Example 2, namely according to the D.T.H. technique using mice immunized with sheep red blood cell as antigen. Thus, a suspension of 10^8 sheep red blood cells in 0.05 ml of physiological saline were subcutaneously injected at the time of immunization into the right hind footpad of each CDF1 -mouse under test (female, 8 weeks-aged, 5 mice in each group) to establish D.T.H. […] The degree of swelling was evaluated. By way of comparison, bestatin was tested in the same way as above. […] The effect of (2S,3R)-AHPA on the D.T.H. response was estimated in the same manner as in the above procedure (A) of Example 3 by orally administering 1 mcg/mouse, 0.1 mcg/mouse or 0.01 mcg/mouse of (2S,3R)-AHPA to each mouse under test. […] The effect of the mode of administering (2S,3R)-AHPA on the D.T.H. response was estimated in the same manner as in the procedure (A) of Example 3, except that the test compound (as aqueous solution) was injected intraperitoneally in stead of being given orally.

Row | SMILES | Degree of swelling ([1]; oral 0.5 mg/kg at immunization) | solubility in water [2] | IC50 [3] [µg/mL] | Degree of swelling ([4]; intraperitoneal 5 mg/kg/day) [%] | acute toxicity: tolerance of intraperitoneal administration [5] | Degree of swelling ([4]; intraperitoneal 0.5 mg/kg/day) [%] | further results
1 | CC(C)C[C@H](NC(=O)[C@@H](O)[C@H](N)Cc1ccccc1)C(=O)N[C@@H](CCCNC(=N)N)C(=O)O [Compound No. 5, (2S,3R)-3-amino-2-hydroxy-4-phenyl-butanoyl-(S)-leucyl-(S)-arginine] | 135% | soluble in water | 0.11 (≈ 0.237 µM) | 147 |  |  | 
2 | CC(C)C[C@H](NC(=O)[C@@H](O)[C@H](N)Cc1ccccc1)C(=O)N[C@H](CCCNC(=N)N)C(=O)O [Compound No. 10] | 134% |  | 0.39 (≈ 0.839 µM) |  | tolerated | 155 | 
3 | CC(C)C[C@H](NC(=O)[C@@H](O)[C@H](N)Cc1ccccc1)C(=O)N[C@H](CC(N)=O)C(=O)O [Compound No. 12, (2S,3R)-3-amino-2-hydroxy-4-phenylbutanoyl-(S)-leucyl-(R)-asparagine] | 133% |  | 4.7 (≈ 11.1 µM) |  | tolerated | 157 | 
4 | CC(C)C[C@H](NC(=O)[C@@H](O)[C@H](N)Cc1ccccc1)C(=O)N[C@@H](CC(N)=O)C(=O)O [Compound No. 11, (2S,3R)-3-amino-2-hydroxy-4-phenylbutanoyl-(S)-leucyl-(S)-asparagine] | 128% |  | 22.4 (≈ 53 µM) |  |  |  | Degree of swelling ([4]; intraperitoneal 0.05 mg/kg/day): 155%
5 | CC(C)C[C@H](NC(=O)[C@H](CC(C)C)NC(=O)[C@@H](O)[C@H](N)Cc1ccccc1)C(=O)O [Compound No. 6, (2S,3R)-3-amino-2-hydroxy-4-phenylbutanoyl-(S)-leucyl-(S)-leucine] | 120% |  | 0.20 (≈ 0.474 µM) |  |  | 152 | 
6 | CC(C)C[C@H](NC(=O)[C@@H](O)[C@H](N)Cc1ccccc1)C(=O)O [Bestatin, (2S, 3R)-3-amino-2-hydroxy-4-phenylbutanoyl-(S)-leucine] | 140-150% | sparingly soluble in water | 0.03 (≈ 0.0973 µM) | 130 |  |  | Degree of swelling ([1]; oral 0.05 mg/kg at immunization): 120-130%; Increase in thickness of footpad (± S.D.) ([6]; Table 3, oral 0.1 mcg/mouse): 9.3 ± 2.70 × 0.1 mm; Degree of swelling ([6]; Table 3, oral 0.1 mcg/mouse): 118%; Increase in thickness of footpad (± S.D.) ([6]; Table 3, oral 1 mcg/mouse): 10.3 ± 0.96 × 0.1 mm; Degree of swelling ([6]; Table 3, oral 1 mcg/mouse): 130%; Increase in thickness of footpad (± S.D.) ([6]; Table 3, oral 10 mcg/mouse): 12.0 ± 1.25 × 0.1 mm; Degree of swelling ([6]; Table 3, oral 10 mcg/mouse): 152%; Increase in thickness of footpad (± S.D.) ([6]; Table 4, oral 1 mcg/mouse): 10.8 ± 1.08 × 0.1 mm; Degree of swelling ([6]; Table 4, oral 1 mcg/mouse): 133%; Degree of swelling, Intraperitoneal injection ([6]; Table 5, intraperitoneal 1 mcg/mouse): 128%; Degree of swelling, Oral administration ([6]; Table 5, oral 1 mcg/mouse): 133%; Increase in thickness of footpad (± S.D.) ([6]; Table 7, oral 1 mcg/mouse): 11.6 ± 0.91 × 0.1 mm; Degree of swelling ([6]; Table 7, oral 1 mcg/mouse): 133%; Increase in thickness of footpad (+ S.D.) ([6]; Table 8, oral 1 mcg/mouse): 10.3 ± 1.36 × 0.1 mm; Degree of swelling ([6]; Table 8, oral 1 mcg/mouse): 121%
